Reference: publication PMC10470053, “Diverse p120RasGAP interactions with doubly phosphorylated partners EphB4, p190RhoGAP, and Dok1” (The Journal of Biological Chemistry, 2023)
Where “and” joins values, the source holds several entries; their conditions need not be identical. Equal entries are not always repeated. Where two headings read alike, the source gives them in different places. Square brackets hold non-standard residues; d marks the D form. Peptide text beside a SMILES is read from it. pY = N[C@@H](Cc1ccc(OP(=O)(O)O)cc1)C(=O)O

Assays:
[1] = biological target: T1, RasGAP^232(mut) (R398E/K400E, C-SH2 mutant) (Homo sapiens, UniProt P20936, C236S/C261S/C372S/C402S/K400E/R398E); assay: Isothermal titration calorimetry, C-SH2 mutant RasGAP^232(mut); assay type: binding
T1 construct: (residues 174–444, termed RasGAP^232); hexahistidine (TEV-cleavable) (N, cleaved yes); made in house; host or cells: E. coli Rosetta (DE3)
T1 sequence (P20936 174-444 C236S/C261S/C372S/R398E/K400E/C402S): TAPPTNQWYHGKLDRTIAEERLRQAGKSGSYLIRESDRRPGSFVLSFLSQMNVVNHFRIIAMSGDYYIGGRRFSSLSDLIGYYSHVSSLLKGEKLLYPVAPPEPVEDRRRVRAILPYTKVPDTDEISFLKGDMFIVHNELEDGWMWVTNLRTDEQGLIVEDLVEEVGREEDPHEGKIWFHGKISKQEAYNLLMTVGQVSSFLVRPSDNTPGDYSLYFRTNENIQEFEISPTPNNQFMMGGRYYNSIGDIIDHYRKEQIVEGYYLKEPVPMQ
Description: One possibility for the difference in binding affinity of EphB4 compared to the other dually phosphorylated peptides is that only a single SH2 domain engages EphB4 at any time. This is supported by the observation that the Kd of binding, 2 μM, is similar to other reported individual SH2 phosphotyrosine interactions (for examples see ([60])) and the evidence of only one inflection point in the doubly phosphorylated EphB4–binding isotherm (Figs. 2B and S3). To assess this hypothesis, we generated two RasGAP^232 mutants that disrupt the phosphotyrosine-binding sites of either the N- or C-SH2 domains and conducted further ITC experiments. […] For the ‘FLVR-unique” C-terminal SH2, we introduced a double mutation R398E/K400E, to abrogate phosphotyrosine binding guided by our previous work ([52]), termed RasGAP^232(mut) (Fig. 2D). We additionally generated a double mutant of both SH2 domains, RasGAP^2(mut)32(mut), and purified each of these proteins (Fig. S2, B–D). […] We then assessed phosphopeptide binding of the single mutant SH2 domains. […] This is similar to the Kd of 2 ± 0.7 μM observed for titration of this peptide into WT RasGAP^232.
To attempt to parse the specificity of RasGAP for the more N- or C-terminal EphB juxtamembrane phosphotyrosines pY590 and pY596, we assessed the affinity of RasGAP^232(mut) for shorter synthesized EphB4 peptides corresponding to either of the two phosphotyrosines (Fig. 1C). […] Alternatively, the C-terminal SH2 may contribute to a second weaker interaction in a tandem interaction. […] This low-affinity interaction represents a primarily single N-SH2-dominant interaction.
Purified RasGAP^232 protein and solubilized peptides were dialyzed overnight against buffer containing 20 mM Tris pH 8, 250 mM NaCl in Slide-A-Lyzer 3 ml 10 kDa molecular weight cut off cassettes (Spectra-Por) and Micro Float-A-Lyzer 0.1 to 0.2 ml, 0.1 to […] molecular weight cut off devices (Spectra-Por), respectively. Protein and peptide concentrations were determined by A280 measured on a Nanodrop Lite (Thermo Fisher Scientific) instrument using extinction coefficients of 45,840 M^−1 cm^−1 for RasGAP^232 (and mutants), 917 M^−1 cm^−1 for the doubly phosphorylated EphB4 peptide, and 458.5 M^−1 cm^−1 for the singly phosphorylated EphB4 peptides as determined by ([74]). Dok1 peptide concentration was confirmed using Amino Acid Analysis performed at UC Davis Molecular Structure Facility. Samples were centrifuged for 10 min at 4 °C and degassed for 7 min using a Degassing Station (TA Instruments). ITC experiments were performed on a Nano ITC (TA Instruments) by loading protein into the 190 μl sample cell and titrating 20 times with 2.5 μl peptide in the titration syringe. Concentrations for sample cell and syringe for each trial are included in Table S1. The data were analyzed in NanoAnalyze software (TA Instrument) using blank (constant) and independent models (https://www.tainstruments.com/itcrun-dscrun-nanoanalyze-software/).

[2] = Reconstitution of lyophilized peptides in water; assay type: physicochemical; settings: lyophilized peptide reconstituted in water; spiked with 20 mM Tris pH 8 or 10 mM NaOH to increase solubility
Excerpt: Synthetic peptides were purchased from GenScript and contain N-terminal acetylation and C-terminal amidation for stability. The doubly phosphorylated EphB4 peptide (UniProt ID P54760) used in ITC and SAXS experiments contains residues 586 to 602 (GTKV[pTyr]IDPFT[pTyr]EDPNEA). The singly phosphorylated EphB4 peptides pY590 and pY596 used in ITC experiments contain the residues 586 to 595 (GTKV[pTyr]IDPFT) and residues 592 to 602 (DPFT[pTyr]EDPNE), respectively. The p190RhoGAP peptide (UniProt ID Q9NRY4) used in SAXS experiments contains the residues 1083 to 1111 (SD[pTyr]AEPMDAVVKPRNEEENI[pTyr]SVPH). The Dok1 peptide (UniProt ID Q99704) used in ITC and SAXS experiments contains the residues 291 to 322 (SPPAL[pTyr]AEPLDSLRIAPCPSQDSL[pTyr]SDPLDST). Lyophilized peptides were reconstituted in water, and less soluble peptides (pYpYEphB4 and pY590) were spiked with 20 mM Tris pH 8 or 10 mM NaOH to increase solubility. Concentrations of stock peptides are as follows: pYpY190 stock concentration is 10 mM; pYpYEphB4 stock concentration is 2.5 mM; Dok1 stock concentration is 5.5 mM; pY596 stock concentration is 10 mM; and pY590 stock concentration is 8 mM.

[3] = biological target: p190RhoGAP-A doubly phosphorylated peptide (Homo sapiens) (UniProt Q9NRY4); assay: ITC; settings: cited from earlier work
[4] = ITC, average of trials (Table S1)

Sequence of p120RasGAP SH2-SH3-SH2 (P20936 174-444): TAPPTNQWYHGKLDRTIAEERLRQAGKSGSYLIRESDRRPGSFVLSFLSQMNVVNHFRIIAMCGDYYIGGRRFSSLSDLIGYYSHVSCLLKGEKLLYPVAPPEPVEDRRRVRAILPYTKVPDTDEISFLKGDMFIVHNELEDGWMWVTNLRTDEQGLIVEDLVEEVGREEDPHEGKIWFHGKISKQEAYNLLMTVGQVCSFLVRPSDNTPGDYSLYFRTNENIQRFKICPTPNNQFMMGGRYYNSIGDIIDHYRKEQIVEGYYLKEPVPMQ
Sequence of p190RhoGAP-A doubly phosphorylated peptide (Homo sapiens) (Q9NRY4 1083-1111): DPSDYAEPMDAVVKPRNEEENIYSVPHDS

Compound	Kd ([1]; ITC, 20 mM Tris pH 8, 250 mM NaCl, independent model, mean ± SD of trials (n = 4 pYpY EphB4, n = 3 pY590, pY596), read-out: Kd) [nM]	solubility on reconstitution, in words [2]	weaker binding than the doubly phosphorylated EphB4 peptide ([1]; ITC Kd, singly versus doubly phosphorylated EphB4 peptide)	n ([1]; ITC stoichiometry, mean ± SD of trials)	-T∆S [1, 4] [kcal/mol]	Ka [1, 4] [µM⁻¹]	∆G [1, 4] [kcal/mol]	ΔS ([1]; ITC, mean ± SD of trials)	-T∆S ([1]; trial 2, ITC) [kcal/mol]	Ka ([1]; trial 2, ITC) [µM⁻¹]	∆G ([1]; trial 2, ITC) [kcal/mol]	∆H ([1]; trial 2, ITC) [kcal/mol]	∆S ([1]; trial 2, ITC) [J/mol*K]	-T∆S ([1]; trial 3, ITC) [kcal/mol]	∆G ([1]; trial 3, ITC) [kcal/mol]	∆H ([1]; trial 3, ITC) [kcal/mol]	∆S ([1]; trial 3, ITC) [J/mol*K]	Kd ([1]; trial 3, ITC, read-out: Ka) [nM]	Kd [3] [nM]
CC[C@H](C)[C@H](NC(=O)[C@H](Cc1ccc(OP(=O)(O)O)cc1)NC(=O)[C@@H](NC(=O)[C@H](CCCCN)NC(=O)[C@@H](NC(=O)CNC(C)=O)[C@@H](C)O)C(C)C)C(=O)N[C@@H](CC(=O)O)C(=O)N1CCC[C@H]1C(=O)N[C@@H](Cc1ccccc1)C(=O)N[C@H](C(=O)N[C@@H](Cc1ccc(OP(=O)(O)O)cc1)C(=O)N[C@@H](CCC(=O)O)C(=O)N[C@@H](CC(=O)O)C(=O)N1CCC[C@H]1C(=O)N[C@@H](CC(N)=O)C(=O)N[C@@H](CCC(=O)O)C(=O)N[C@@H](C)C(N)=O)[C@@H](C)O [pYpY EphB4] (Ac-GTKV[pY]IDPFT[pY]EDPNEA-NH2)	1000 ± 300	less soluble	–	–	–	–	–	–	–	–	–	–	–	–	–	–	–	–	–
CC[C@H](C)[C@H](NC(=O)[C@H](Cc1ccc(OP(=O)(O)O)cc1)NC(=O)[C@@H](NC(=O)[C@H](CCCCN)NC(=O)[C@@H](NC(=O)CNC(C)=O)[C@@H](C)O)C(C)C)C(=O)N[C@@H](CC(=O)O)C(=O)N1CCC[C@H]1C(=O)N[C@@H](Cc1ccccc1)C(=O)N[C@H](C(N)=O)[C@@H](C)O [pY590 EphB4] (Ac-GTKV[pY]IDPFT-NH2)	–	less soluble	about 10 fold	0.8 ± 0.1	-2.87	0.07	-6.69	40 J/mol∗K and 40 ± 18 J/mol∗K	-2.82	0.07	-6.6	-3.78	40.0	-4.16	-6.84	-2.68	58.3	100	–
p120RasGAP SH2-SH3-SH2 (from UniProt P20936)	–	–	–	–	–	–	–	–	–	–	–	–	–	–	–	–	–	–	10
